What was measured:
[1] = tested on: tobacco budworm (Heliothis virescens); conditions: 2500 ppm; eggs sprayed, 6 days
Sphaerotheca fuliginea = test: Use Example 8: protective action on cucumber leaves; type: in vivo; conditions: 250 ppm (printed for RC 3 only); cucumber seedlings sprayed 1 day before inoculation; after seven days; untreated plants 90% infected
Text: After inoculation, the trial plants were transferred to a green house.

Alternaria solani = test: Use Example 2: early blight of tomato, greenhouse, spores in 2% biomalt; type: in vivo; conditions: 250 ppm; tomato plants sprayed 1 day before inoculation; assessed after 5 days; untreated plants 90% infected
Procedure: The next day, the treated plants were inoculated with a spore suspension of Alternaria solani which contained 0.17×10^6 spores/ml in a 2% aqueous biomalt solution. The test plants were then placed in a water vapor-saturated chamber at temperatures of from 20 to 22° C. After 5 days the disease on the untreated infected control plants had developed to such an extent that the infection of all plants could be determined visually in %.

Phytophthora infestans = type: in vivo; conditions: 250 ppm; tomato plants, sprayed 1 day before inoculation; after six days; untreated plants 90% infected

O=S(=O)(NCc1ccncn1)c1ccc(-c2ccc(Cl)cc2Cl)cc1 [Example 54]
mortality [1]: at least 75%

COc1nccc(CNS(=O)(=O)c2ccc(-c3ccc(Cl)cc3)cc2)n1 [Example 88]
infection (% diseased leaf area) (Sphaerotheca fuliginea): no infection

O=S(=O)(NCc1ccncn1)c1ccc(Oc2ccc(Cl)cc2)cc1 [Example 199]
infection (Alternaria solani): less than or equal to 5%

O=S(=O)(NCc1ccncc1)c1ccc(Oc2ccc(Cl)cc2)cc1 [RC 1]
infection (Alternaria solani): 40%

O=S(=O)(NCc1ccncc1)c1ccc(-c2ccc(Cl)cc2)cc1 [RC 2]
infection (% diseased leaf area) (Phytophthora infestans): 90%

COc1cc(CNS(=O)(=O)c2ccc(-c3ccc(Cl)cc3)cc2)ccn1 [RC 3]
infection (% diseased leaf area) (Sphaerotheca fuliginea): 90%
